molecular target: human capsaicin receptor (VR1) (Homo sapiens, UniProt Q8NER1); test: Capsaicin receptor binding assay ([3H]RTX competition, VR1-transfected HEK293 membranes)
Sequence (Q8NER1 whole entry): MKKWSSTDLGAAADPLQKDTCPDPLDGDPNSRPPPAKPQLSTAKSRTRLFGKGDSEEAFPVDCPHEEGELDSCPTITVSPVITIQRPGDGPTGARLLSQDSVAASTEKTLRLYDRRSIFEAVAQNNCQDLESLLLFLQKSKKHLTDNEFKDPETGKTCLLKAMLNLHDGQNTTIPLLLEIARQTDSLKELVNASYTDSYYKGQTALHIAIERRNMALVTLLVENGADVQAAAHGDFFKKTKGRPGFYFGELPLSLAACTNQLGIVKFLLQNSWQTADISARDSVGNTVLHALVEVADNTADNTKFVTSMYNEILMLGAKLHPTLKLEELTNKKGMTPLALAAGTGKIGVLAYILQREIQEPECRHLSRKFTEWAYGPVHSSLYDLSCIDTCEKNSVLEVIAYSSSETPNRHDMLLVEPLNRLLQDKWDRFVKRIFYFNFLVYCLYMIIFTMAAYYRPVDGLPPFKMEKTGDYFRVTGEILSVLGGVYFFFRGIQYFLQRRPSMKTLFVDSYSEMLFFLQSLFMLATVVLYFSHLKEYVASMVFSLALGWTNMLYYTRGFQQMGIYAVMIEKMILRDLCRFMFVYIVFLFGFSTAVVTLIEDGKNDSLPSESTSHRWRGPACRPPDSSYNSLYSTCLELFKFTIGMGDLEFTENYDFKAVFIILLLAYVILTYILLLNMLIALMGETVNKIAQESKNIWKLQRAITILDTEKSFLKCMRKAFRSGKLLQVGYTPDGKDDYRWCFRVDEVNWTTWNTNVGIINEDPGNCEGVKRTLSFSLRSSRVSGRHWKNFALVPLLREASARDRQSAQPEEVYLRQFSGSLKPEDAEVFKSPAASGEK

Ki, < 1000 nM:
CN(C)CCNC(=O)c1nc(Nc2ccc(C(F)(F)F)cc2)c2ccc(-c3ncccc3C(F)(F)F)nc2n1 [Compound 435, 4-(4-Trifluoromethyl-phenylamino)-7-(3-trifluoromethyl-pyridin-2-yl)-pyrido[2,3-d]pyrimidine-2-carboxylic acid (2-dimethylamino-ethyl)-amide]
C[C@H]1CN(Cc2nc(Nc3ccc(C(C)(C)C)cc3)c3ccc(-c4ncccc4Cl)cc3n2)C[C@H](C)O1 [Compound 649, (S,S)-(4-tert-Butyl-phenyl)-[7-(3-chloro-pyridin-2-yl)-2-(2,6-dimethyl-morpholin-4-ylmethyl)-quinazolin-4-yl]-amine]
CC(C)(C)c1ccc(Nc2nc(CCCOCc3ccccc3)nc3cc(-c4ncccc4C(F)(F)F)ccc23)cn1 [Compound 15, [2-(3-Benzyloxy-propyl)-7-(3-trifluoromethyl-pyridin-2-yl)-quinazolin-4-yl]-(6-tert-butyl-pyridin-3-yl)-amine]
CCCCN(C)CCc1nc(Nc2ccc(C(F)(F)F)cc2)c2ccc(-c3ncccc3C(F)(F)F)cc2n1 [Compound 413, [2-[(Butyl-methyl-amino)-ethyl]-7-(3-trifluoromethyl-pyridin-2-yl)-quinazolin-4-yl]-(4-trifluoromethyl-phenyl)-amine]
O=C(O)C1CCN(Cc2nc(Nc3ccc(C(F)(F)F)cc3)c3ccc(-c4ncccc4C(F)(F)F)cc3n2)CC1 [Compound 728, 1-[4-(4-Trifluoromethyl-phenylamino)-7-(3-trifluoromethyl-pyridin-2-yl)-quinazolin-2-ylmethyl]-piperidine-4-carboxylic acid]
CN(CCc1ccccc1)Cc1nc(Nc2ccc(C(F)(F)F)nc2)c2ccc(-c3ncccc3C(F)(F)F)cc2n1 [Compound 357, [2-[(Methyl-phenethyl-amino)-methyl]-7-(3-trifluoromethyl-pyridin-2-yl)-quinazolin-4-yl]-(6-trifluoromethyl-pyridin-3-yl)-amine]
O=C(c1nc(Nc2ccc(C(F)(F)F)cc2)c2ccc(-c3ncccc3C(F)(F)F)nc2n1)N1CCN(C2CCCCCC2)CC1 [Compound 474, (4-Cycloheptyl-piperazin-1-yl)-[4-(4-trifluoromethyl-phenylamino)-7-(3-trifluoromethyl-pyridin-2-yl)-pyrido[2,3-d]pyrimidin-2-yl]-methanone]
COCc1nc(Nc2ccc(C(F)(F)F)nc2)c2ccc(-c3ncccc3C)nc2n1 [Compound 148, [2-Methoxymethyl-7-(3-methyl-pyridin-2-yl)-pyrido[2,3-d]pyrimidin-4-yl]-(6-trifluoromethyl-pyridin-3-yl)-amine]
CCCN(Cc1nc(Nc2ccc(C(F)(F)F)nc2)c2ccc(-c3ncccc3C(F)(F)F)cc2n1)CC1CC1 [Compound 375, [2-[(Cyclopropylmethyl-propyl-amino)-methyl]-7-(3-trifluoromethyl-pyridin-2-yl)-quinazolin-4-yl]-(6-trifluoromethyl-pyridin-3-yl)-amine]
O=C(O)[C@@H]1CCCN1C(=O)c1nc(Nc2ccc(C(F)(F)F)cc2)c2ccc(-c3ncccc3C(F)(F)F)nc2n1 [Compound 768, (S)-1-[4-(4-Trifluoromethyl-phenylamino)-7-(3-trifluoromethyl-pyridin-2-yl)-pyrido[2,3-d]pyrimidine-2-carbonyl]-pyrrolidine-2-carboxylic acid]
NC(=O)C1CCN(Cc2nc(Nc3ccc(C(F)(F)F)cc3)c3ccc(-c4ncccc4C(F)(F)F)cc3n2)CC1 [Compound 500, 1-[4-(4-Trifluoromethyl-phenylamino)-7-(3-trifluoromethyl-pyridin-2-yl)-quinazolin-2-ylmethyl]-piperidine-4-carboxylic acid amide]
CN(C)CCc1nc(Nc2ccc(C(F)(F)F)cc2)c2ccc(-c3ncccc3C(F)(F)F)cc2n1 [Compound 409, [2-Dimethylaminoethyl-7-(3-trifluoromethyl-pyridin-2-yl)-quinazolin-4-yl]-(4-trifluoromethyl-phenyl)-amine]
Cc1cccnc1-c1ccc2c(Nc3ccc(C(C)(C)C)nc3)nc(COCC(C)C)nc2n1 [Compound 193, (6-tert-Butyl-pyridin-3-yl)-[2-isobutoxymethyl-7-(3-methyl-pyridin-2-yl)-pyrido[2,3-d]pyrimidin-4-yl]-amine]
CCC(C)c1ccc(Nc2nc(CN3C[C@@H](C)O[C@@H](C)C3)nc3cc(-c4ncccc4Cl)ccc23)cc1 (stereo partly drawn) [Compound 680, (4-sec-Butyl-phenyl)-[7-(3-chloro-pyridin-2-yl)-2-(2,6-dimethyl-morpholin-4-ylmethyl)-quinazolin-4-yl]-amine (cis)]
CCCCN(CC)Cc1nc(Nc2ccc(C(F)(F)F)cc2)c2ccc(-c3ncccc3C(F)(F)F)cc2n1 [Compound 334]
CC(C)COCc1nc(Nc2ccc(CC(=O)O)cc2)c2ccc(-c3ncccc3Cl)nc2n1 [Compound 284, {4-[7-(3-Chloro-pyridin-2-yl)-2-isobutoxymethyl-pyrido[2,3-d]pyrimidin-4-ylamino]-phenyl}-acetic acid]
CC1(C)CN(Cc2nc(Nc3ccc(C(F)(F)F)cc3)c3ncc(-c4ncccc4C(F)(F)F)cc3n2)CCO1 [Compound 742, [2-(2,2-Dimethyl-morpholin-4-ylmethyl)-7-(3-trifluoromethyl-pyridin-2-yl)-pyrido[3,2-d]pyrimidin-4-yl]-(4-trifluoromethyl-phenyl)-amine]
FC(F)(F)c1ccc(Nc2nc(CN3CCCC4CCCCC43)nc3cc(-c4ncccc4C(F)(F)F)ccc23)cn1 (stereo not shown) [Compound 365, [2-(Octahydro-quinolin-1-ylmethyl)-7-(3-trifluoromethyl-pyridin-2-yl)-quinazolin-4-yl]-(6-trifluoromethyl-pyridin-3-yl)-amine]
CC(C)(C)CNC(=O)c1nc(Nc2ccc(C(F)(F)F)cc2)c2ccc(-c3ncccc3C(F)(F)F)nc2n1 [Compound 458, 4-(4-Trifluoromethyl-phenylamino)-7-(3-trifluoromethyl-pyridin-2-yl)-pyrido[2,3-d]pyrimidine-2-carboxylic acid (2,2-dimethyl-propyl)-amide]
FC(F)(F)c1ccc(Nc2nc(CN3CCCCCCC3)nc3cc(-c4ncccc4C(F)(F)F)ccc23)cn1 [Compound 362, [2-Azocan-1-ylmethyl-7-(3-trifluoromethyl-pyridin-2-yl)-quinazolin-4-yl]-(6-trifluoromethyl-pyridin-3-yl)-amine]
CC(C)COCc1nc(Nc2ccc(C#N)cc2)c2ccc(-c3ncccc3Cl)nc2n1 [Compound 261, 4-[7-(3-Chloro-pyridin-2-yl)-2-isobutoxymethyl-pyrido[2,3-d]pyrimidin-4-ylamino]-benzonitrile]
CCN(Cc1nc(Nc2ccc(C(F)(F)F)nc2)c2ccc(-c3ncccc3C(F)(F)F)cc2n1)C(C)C [Compound 371, [2-[(Ethyl-isopropyl-amino)-methyl]-7-(3-trifluoromethyl-pyridin-2-yl)-quinazolin-4-yl]-(6-trifluoromethyl-pyridin-3-yl)-amine]
CN(Cc1nc(Nc2ccc(C(F)(F)F)cc2)c2ccc(-c3ncccc3C(F)(F)F)cc2n1)C1CCc2ccccc21 (stereo not shown) [Compound 324, [2-[(Indan-1-yl-methyl-amino)-methyl]-7-(3-trifluoromethyl-pyridin-2-yl)-quinazolin-4-yl]-(4-trifluoromethyl-phenyl)-amine]
Cc1cc(Nc2nc(COCC(C)C)nc3nc(-c4ncccc4C(F)(F)F)ccc23)ccc1F [Compound 253, (4-Fluoro-3-methyl-phenyl)-[2-isobutoxymethyl-7-(3-trifluoromethyl-pyridin-2-yl)-pyrido[2,3-d]pyrimidin-4-yl]-amine]
C[C@H]1CN(Cc2nc(Nc3ccc(Cl)cc3)c3ccc(-c4ncccc4Cl)cc3n2)C[C@H](C)O1 [Compound 644, (S,S)-(4-Chloro-phenyl)-[7-(3-chloro-pyridin-2-yl)-2-(2,6-dimethyl-morpholin-4-ylmethyl)-quinazolin-4-yl]-amine]
FC(F)(F)c1ccc(Nc2nc(-c3ccc(N4CCCC4)nc3)nc3cc(-c4ncccc4C(F)(F)F)ccc23)cc1 [Compound 543, [2-(6-Pyrrolidin-1-yl-pyridin-3-yl)-7-(3-trifluoromethyl-pyridin-2-yl)-quinazolin-4-yl]-(4-trifluoromethyl-phenyl)-amine]
OCc1nc(Nc2ccc(C(F)(F)F)nc2)c2ccc(-c3ncccc3C(F)(F)F)cc2n1 [Compound 22, [7-(3-Trifluoromethyl-pyridin-2-yl)-4-(6-trifluoromethyl-pyridin-3-ylamino)-quinazolin-2-yl]-methanol]
COCC(C)(C)c1ccc(Nc2nc(COCC(C)C)nc3nc(-c4ncccc4C)ccc23)cc1 [Compound 215, [2-Isobutoxymethyl-7-(3-methyl-pyridin-2-yl)-pyrido[2,3-d]pyrimidin-4-yl]-[4-(2-methoxy-1,1-dimethyl-ethyl)-phenyl]-amine]
Cc1cccnc1-c1ccc2c(Nc3ccc(C(C)C)cc3)nc(COC(C)C)nc2c1 [Compound 105, [2-Isopropoxymethyl-7-(3-methyl-pyridin-2-yl)-quinazolin-4-yl]-(4-isopropyl-phenyl)-amine]
CCOC(=O)C1CCN(Cc2nc(Nc3ccc(C(F)(F)F)cc3)c3ccc(-c4ncccc4C(F)(F)F)cc3n2)CC1 [Compound 503, 1-[4-(4-Trifluoromethyl-phenylamino)-7-(3-trifluoromethyl-pyridin-2-yl)-quinazolin-2-ylmethyl]-piper idine-4-carboxylic acid ethyl ester]
COCc1nc(Nc2ccc(C(C)C(F)(F)F)cc2)c2ccc(-c3ncccc3C(F)(F)F)nc2n1 (stereo not shown) [Compound 94, [2-Methoxymethyl-7-(3-trifluoromethyl-pyridin-2-yl)-pyrido[2,3-d]pyrimidin-4-yl]-[4-(2,2,2-trifluoro-1-methyl-ethyl)-phenyl]-amine]

From patent publication US20040156869A1, “2-substituted quinazolin-4-ylamine analogues” (Neurogen Corporation, priority 2002, published 2004)
